# Like-named read-outs stand apart in the source and are kept apart here.
# Biological target: T1, Human BCL-XL protein (N-terminal HiBiT tagged BCL-XL in HT1080 cells) (Homo sapiens, UniProt Q07817)
# T1 construct: expressed in transfected cells; host or cells: HT-1080 (ATCC CCL-121), stably transduced with lentivirus pLV-UBC-N-HiBiT-BCL-XL-PGK-puro and selected with puromycin
# Assay: HiBiT based degradation assay
# Type: cell-based
# Conditions: HT1080 cells expressing HiBiT-BCL-XL; for Ymin (24 h) / Ymin (6 h): BCL-XL degradation normalized with DMSO control; for DC50: BCL-XL degradation
# Summary of the method: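 This HiBiT degradation assay measured loss of BCL-XL in HT1080 cells that stably express an N-terminal HiBiT-BCL-XL fusion delivered by lentivirus. Cells were added to compound-spotted 384-well plates, and luminescence was read on a PHERAstar FSX reader. Signal was expressed relative to DMSO controls, curves were fitted by four-parameter logistic regression, and for hook-shaped curves the Ymin point served as the bottom plateau when calculating EC50.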
# T1 sequence (Q07817 whole entry): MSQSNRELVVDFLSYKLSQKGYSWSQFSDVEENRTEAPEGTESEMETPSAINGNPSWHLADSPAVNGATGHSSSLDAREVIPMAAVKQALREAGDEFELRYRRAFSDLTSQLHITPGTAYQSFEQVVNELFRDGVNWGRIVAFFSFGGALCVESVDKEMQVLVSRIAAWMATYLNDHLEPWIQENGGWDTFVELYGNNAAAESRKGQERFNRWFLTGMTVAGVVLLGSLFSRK
SMILES,Ymin (24 h),"DC50 (24 h, read-out: EC50 (24 h))",Ymin (6 h),"DC50 (6 h, read-out: EC50 (6 h))"
"Cc1c(OCCCC2CCN(CC(=O)Nc3cccc4c(C5CCC(=O)NC5=O)nn(C)c34)CC2)cccc1-c1ccc(N2CCc3cccc(C(=O)Nc4nc5ccccc5s4)c3C2)nc1C(=O)O (stereo not drawn) [Compound 158, 6-(8-(benzo[d]thiazol-2-ylcarbamoyl)-3,4-dihydroisoquinolin-2(1H)-yl)-3-(3-(3-(1-(2-((3-(2,6-dioxopiperidin-3-yl)-1-methyl-1H-indazol-7-yl)amino)-2-oxoethyl)piperidin-4-yl)propoxy)-2-methylphenyl)picolinic acid]",B (50% ≤ Ymin < 70%),100 to 1000 nM,C (Ymin ≥ 70%),< 100 nM
"Cc1c(O[C@H]2CC[C@H](CCCCN3CC[C@H](c4ccc5c(C6CCC(=O)NC6=O)nn(C)c5c4)C3)CC2)cccc1-c1ccc(N2CCc3cccc(C(=O)Nc4nc5ccccc5s4)c3C2)nc1C(=O)O (single isomer, unassigned) [Compound 332a]",A (Ymin < 50%),< 100 nM,–,–
"Cc1c(OCCC2CCN(CC(=O)N3CCN(c4ccc5c(C6CCC(=O)NC6=O)nn(C)c5c4)CC3)CC2)cccc1-c1ccc(N2CCc3cccc(C(=O)Nc4nc5ccccc5s4)c3C2)nc1C(=O)O (stereo not drawn) [Compound 143, 6-(8-(benzo[d]thiazol-2-ylcarbamoyl)-3,4-dihydroisoquinolin-2(1H)-yl)-3-(3-(2-(1-(2-(4-(3-(2,6-dioxopiperidin-3-yl)-1-methyl-1H-indazol-6-yl)piperazin-1-yl)-2-oxoethyl)piperidin-4-yl)ethoxy)-2-methylphenyl)picolinic acid]",A (Ymin < 50%),< 100 nM,A (Ymin < 50%),< 100 nM
"Cc1c(OCC(F)(F)CN2C[C@@H](C)N(CC(=O)Nc3ccc4c(C5CCC(=O)NC5=O)nn(C)c4c3)[C@@H](C)C2)cccc1-c1ccc(N2CCc3cccc(C(=O)Nc4nc5ccccc5s4)c3C2)nc1C(=O)O (stereo partly drawn) [Compound 177a, 6-[8-(1,3-benzothiazol-2-ylcarbamoyl)-3,4-dihydro-1H-isoquinolin-2-yl]-3-[3-[3-[(3R,5S)-4-[2-[[3-(2,6-dioxo-3-piperidyl)-1-methyl-indazol-6-yl]amino]-2-oxo-ethyl]-3,5-dimethyl-piperazin-1-yl]-2,2-difluoro-propoxy]-2-methyl-phenyl]pyridine-2-carboxylic acid]",B (50% ≤ Ymin < 70%),100 to 1000 nM,–,–
"Cc1c(OCCC[C@H]2CCN(CC(=O)Nc3ccc4c(C5CCC(=O)NC5=O)nn(C)c4c3)C2)cccc1-c1ccc(N2CCc3cccc(C(=O)Nc4nc5ccccc5s4)c3C2)nc1C(=O)O (stereo partly drawn) [Compound 160b, 6-(8-(benzo[d]thiazol-2-ylcarbamoyl)-3,4-dihydroisoquinolin-2(1H)-yl)-3-(3-(3-((3S)-1-(2-((3-(2,6-dioxopiperidin-3-yl)-1-methyl-1H-indazol-6-yl)amino)-2-oxoethyl)pyrrolidin-3-yl)propoxy)-2-methylphenyl)picolinic acid]",A (Ymin < 50%),< 100 nM,–,–
"Cc1c(O[C@H]2CC[C@H](CCCC(=O)N3CCN(c4cccc5c(C6CCC(=O)NC6=O)nn(C)c45)CC3)CC2)cccc1-c1ccc(N2CCc3cccc(C(=O)Nc4nc5ccccc5s4)c3C2)nc1C(=O)O (stereo partly drawn) [Compound 214a, 6-(8-(benzo[d]thiazol-2-ylcarbamoyl)-3,4-dihydroisoquinolin-2(1H)-yl)-3-(3-(((1s,4r)-4-(4-(4-(3-(2,6-dioxopiperidin-3-yl)-1-methyl-1H-indazol-7-yl)piperazin-1-yl)-4-oxobutyl)cyclohexyl)oxy)-2-methylphenyl)picolinic acid]",B (50% ≤ Ymin < 70%),< 100 nM,–,–
"Cc1c(OCC2CC3(CCN(CCN4CCN(c5ccc6c(C7CCC(=O)NC7=O)nn(C)c6c5)CC4)CC3)C2)cccc1-c1ccc(N2CCc3cccc(C(=O)Nc4nc5ccccc5s4)c3C2)nc1C(=O)O (stereo not drawn) [Compound 225, 6-(8-(benzo[d]thiazol-2-ylcarbamoyl)-3,4-dihydroisoquinolin-2(1H)-yl)-3-(3-((7-(2-(4-(3-(2,6-dioxopiperidin-3-yl)-1-methyl-1H-indazol-6-yl)piperazin-1-yl)ethyl)-7-azaspiro[3.5]nonan-2-yl)methoxy)-2-methylphenyl)picolinic acid]",A (Ymin < 50%),< 100 nM,–,–
"Cc1c(OCC[C@@H](C)C2CCN(CC(=O)Nc3ccc4c(C5CCC(=O)NC5=O)nn(C)c4c3)CC2)cccc1-c1ccc(N2CCc3cccc(C(=O)Nc4nc5ccccc5s4)c3C2)nc1C(=O)O (stereo partly drawn) [Compound 167a, 6-[8-(1,3-benzothiazol-2-ylcarbamoyl)-3,4-dihydro-1H-isoquinolin-2-yl]-3-[3-[(3R)-3-[1-[2-[[3-(2,6-dioxo-3-piperidyl)-1-methyl-indazol-6-yl]amino]-2-oxo-ethyl]-4-piperidyl]butoxy]-2-methyl-phenyl]pyridine-2-carboxylic acid]",A (Ymin < 50%),< 100 nM,–,–
"Cc1c(OCCCCC2CCN(CC(=O)Nc3ccc4c(C5CCC(=O)NC5=O)nn(C)c4c3)CC2)cccc1-c1ccc(N2CCc3cccc(C(=O)Nc4nc5ccccc5s4)c3C2)nc1C(=O)O (stereo not drawn) [Compound 203, 6-(8-(benzo[d]thiazol-2-ylcarbamoyl)-3,4-dihydroisoquinolin-2(1H)-yl)-3-(3-(4-(1-(2-((3-(2,6-dioxopiperidin-3-yl)-1-methyl-1H-indazol-6-yl)amino)-2-oxoethyl)piperidin-4-yl)butoxy)-2-methylphenyl)picolinic acid]",A (Ymin < 50%),< 100 nM,B (50% ≤ Ymin < 70%),< 100 nM

# Further lines, results first:
Ymin (24 h),"DC50 (24 h, read-out: EC50 (24 h))",Ymin (6 h),"DC50 (6 h, read-out: EC50 (6 h))",SMILES
A (Ymin < 50%),< 100 nM,–,–,"Cc1c(OCCCC2CCN([C@@H](C)C(=O)Nc3ccc4c(C5CCC(=O)NC5=O)nn(C)c4c3)CC2)cccc1-c1ccc(N2CCc3cccc(C(=O)Nc4nc5ccccc5s4)c3C2)nc1C(=O)O (stereo partly drawn) [Compound 164a, 6-(8-(benzo[d]thiazol-2-ylcarbamoyl)-3,4-dihydroisoquinolin-2(1H)-yl)-3-(3-(3-(1-((2S)-1-((3-(2,6-dioxopiperidin-3-yl)-1-methyl-1H-indazol-6-yl)amino)-1-oxopropan-2-yl)piperidin-4-yl)propoxy)-2-methylphenyl)picolinic acid]"
A (Ymin < 50%),< 100 nM,–,–,"Cc1c(O[C@H]2CC[C@H](CCC(=O)N3CCC(c4ccc5c(C6CCC(=O)NC6=O)nn(C)c5c4)CC3)CC2)cccc1-c1ccc(N2CCc3cccc(C(=O)Nc4nc5ccccc5s4)c3C2)nc1C(=O)O (stereo partly drawn) [Compound 259a, 6-(8-(benzo[d]thiazol-2-ylcarbamoyl)-3,4-dihydroisoquinolin-2(1H)-yl)-3-(3-(((1r,4r)-4-(3-(4-(3-(2,6-dioxopiperidin-3-yl)-1-methyl-1H-indazol-6-yl)piperidin-1-yl)-3-oxopropyl)cyclohexyl)oxy)-2-methylphenyl)picolinic acid]"
A (Ymin < 50%),< 100 nM,–,–,"Cc1c(O[C@H]2CC[C@H](CCCCN3CCN(c4ccc5c(C6CCC(=O)NC6=O)nn(C)c5c4F)CC3)CC2)cccc1-c1ccc(N2CCc3cccc(C(=O)Nc4nc5ccccc5s4)c3C2)nc1C(=O)O (stereo partly drawn) [Compound 293a, 6-(8-(benzo[d]thiazol-2-ylcarbamoyl)-3,4-dihydroisoquinolin-2(1H)-yl)-3-(3-(((1s,4r)-4-(4-(4-(3-(2,6-dioxopiperidin-3-yl)-7-fluoro-1-methyl-1H-indazol-6-yl)piperazin-1-yl)butyl)cyclohexyl)oxy)-2-methylphenyl)picolinic acid]"
B (50% ≤ Ymin < 70%),< 100 nM,C (Ymin ≥ 70%),< 100 nM,"Cc1c(O[C@H](C)CCC2CCN(CC(=O)Nc3cccc4c(C5CCC(=O)NC5=O)nn(C)c34)CC2)cccc1-c1ccc(N2CCc3cccc(C(=O)Nc4nc5ccccc5s4)c3C2)nc1C(=O)O (stereo partly drawn) [Compound 169b, 6-[8-(1,3-benzothiazol-2-ylcarbamoyl)-3,4-dihydro-1H-isoquinolin-2-yl]-3-[3-[(1R)-3-[1-[2-[[3-(2,6-dioxo-3-piperidyl)-1-methyl-indazol-7-yl]amino]-2-oxo-ethyl]-4-piperidyl]-1-methyl-propoxy]-2-methyl-phenyl] pyridine-2-carboxylic acid]"
B (50% ≤ Ymin < 70%),< 100 nM,–,–,"Cc1c(OC[C@H](C)CC2CCN(CC(=O)Nc3ccc4c(C5CCC(=O)NC5=O)nn(C)c4c3)CC2)cccc1-c1ccc(N2CCc3cccc(C(=O)Nc4nc5ccccc5s4)c3C2)nc1C(=O)O (single isomer, unassigned) [Compound 263a]"
A (Ymin < 50%),< 100 nM,–,–,"Cc1c(O[C@H]2CC[C@H](C[C@H](C)CN3CCN(c4cccc5c(C6CCC(=O)NC6=O)nn(C)c45)CC3)CC2)cccc1-c1ccc(N2CCc3cccc(C(=O)Nc4nc5ccccc5s4)c3C2)nc1C(=O)O (single isomer, unassigned) [Compound 284a]"
A (Ymin < 50%),< 100 nM,B (50% ≤ Ymin < 70%),< 100 nM,"Cc1c(O[C@@H](C)CCC2CCN(CC(=O)Nc3ccc4c(C5CCC(=O)NC5=O)nn(C)c4c3)CC2)cccc1-c1ccc(N2CCc3cccc(C(=O)Nc4nc5ccccc5s4)c3C2)nc1C(=O)O (stereo partly drawn) [Compound 162a, 6-[8-(1,3-benzothiazol-2-ylcarbamoyl)-3,4-dihydro-H-isoquinolin-2-yl]-3-[3-[(1 S)-3-[1-[2-[[3-(2,6-dioxo-3-piperidyl)-1-methyl-indazol-6-yl]amino]-2-oxo-ethyl]-4-piperidyl]-1-methyl-propoxy]-2-methyl-phenyl]pyridine-2-carboxylic acid]"

# From patent publication US20240238423A9, “TETRAHYDROISOQUINOLINE HETEROBIFUNCTIONAL BCL-XL DEGRADERS” (Treeline Biosciences, Inc., priority 2022, published 2024)
